Assays:
[1] = tested on: mouse embryonic fibroblast (MEF) cells; experiment: Par-4 secretion from normal mouse fibroblasts (Western blot of conditioned medium); assay type: cell-based; settings: for level of Par-4 secretion, structure-activity comparison among analogs: normal mouse fibroblasts, conditions not toxic to the cells
Experimental: In another aspect, the subject technology provides assays for screening test compounds that interfere with vimentin binding to PAR-4 or which cause release of vimentin-bound PAR-4. In a typical assay, cells, such as HEL cells, are seeded onto an appropriate support, such as 60-mm plates containing supplemented growth medium (e.g., supplemented with 0.1% serum) at a desired confluency, such as 40-70% confluency, and treated with the test compound (e.g., 500 nM) or control vehicle. The cells are allowed to grow for a period of time, such as 24 hours, after which the conditioned medium (CM) is concentrated (e.g., concentrated 30× to 100 μl using Millipore tubes (Amicon Ultra centrifugal filters, Ultracel-10K) by 15 min centrifugation at 4500 rpm). The concentrated CM is then subjected to co-immunoprecipitation using detectably labeled PAR-4 and vimentin antibodies in the presence of various concentrations of purified PAR-4 and the precipitated proteins are resolved by SDS-PAGE and analyzed by Western blot analysis. The amount of immunoprecipitated PAR-4-vimentin complex is compared to that of control samples. For example, chemiluminescent signals may be quantified in the BIO-RAD Molecular Imager ChemiDoc XRS+Imaging system using Quantity One software. Induction of Par-4 secretion by the test drug (e.g., 500 nM), as judged by this Western blot analysis procedure, will indicate dissociation of Par-4 from vimentin. […] For such experiments, cells may be treated with the test drug (e.g., 500 nM) or vehicle for an appropriate period of time, such as 24 hours, and then cell lysates are prepared and subjected to immunoprecipitation using an appropriate amount of a Par-4 antibody, vimentin antibody or control IgG antibody by using any standard immunoprecipitation procedure. Following […], the complexes are resolved, preferably by Western blot analysis as described above. If the drug inhibits the binding of Par-4 to vimentin, it will be reflected in the lack of co-immunoprecipitation of Par-4 with the vimentin antibody, and co-immunoprecipitation of vimentin with the Par-4 antibody.
Co-Immunoprecipitation and Western blot analysis: Protein extracted from cell lysates was filtered, pre-cleared with 25 μL (bed volume) of protein G-Sepharose beads and immunoprecipitated with 1 μg of respective antibodies. The eluted proteins were resolved by SDS-PAGE, and subjected to Western blot analysis as described.
To identify Par-4 secretagogues, we synthesized and screened 3-arylquinolines as well as related quinolones and quinothiolones for the secretion of Par-4 protein from normal fibroblasts under conditions that are not toxic to the cells.
We screened representative members of each of these heterocyclic families on a compound-by-compound basis for the secretion of Par-4 protein from normal mouse fibroblasts under conditions that were not toxic to the cells. Initial expectations were that these heterocycles would serve as Nutlin-3a surrogates and inhibit MDM2, but studies reported herein established a completely different mechanism of action, reflecting that the structural dissimilarities between these heterocycles and Nutlin-3a outweighed the similarities that led to their initial selection for screening.

Par-4 secretion = experiment: Par-4 secretion, cells not specified; assay type: cell-based

| Structure (SMILES) | melting point [°C] | also measured |
| --- | --- | --- |
| CN(C)c1ccc2cc(-c3cccc(F)c3)c(N)nc2c1 [Arylquin 2, 3-(3-fluorophenyl)-N^7,N^7-dimethylquinoline-2,7-diamine] | 147 to 148 | – |
| CN(C)c1ccc2cc(-c3ccccc3)c(N)nc2c1 [Arylquin 7, N^7,N^7-Dimethyl-3-phenylquinoline-2,7-diamine] | 123 to 125 | – |
| Nc1nc2ccccc2cc1-c1ccccc1F [Arylquin 8, 3-(2-fluorophenyl)quinolin-2-amine] | 152 to 153 | level of Par-4 secretion, structure-activity comparison among analogs [1]: highest levels of Par-4 secretion |
| CN(C)c1ccc2cc(-c3ccccc3F)c(SCC(=O)NCCOCCOCCNC(=O)CCCCC3SCC4NC(=O)NC43)nc2c1 (centres unmarked) [Biotinylated Arylquin 9, N-(2-(2-(2-(2-(7-(dimethylamino)-3-(2-fluorophenyl)quinolin-2-ylthio)acetamido)ethoxy)ethoxy)ethyl)-5-(2-oxohexahydro-1H-thieno[3,4-d]imidazol-4-yl)pentanamide] | – | Par-4 secretory properties (Par-4 secretion): retain Par-4 secretory properties |
| C[C@H]1CCC/C=C/[C@@H]2C[C@H](O)C[C@H]2[C@H](O)/C=C/C(=O)O1 [Brefeldin A, reference compound] | – | effect on basal and Arylquin 1-inducible Par-4 secretion (Par-4 secretion): inhibited basal as well as Arylquin 1-inducible Par-4 secretion |
| COc1ccc(C2=N[C@@H](c3ccc(Cl)cc3)[C@@H](c3ccc(Cl)cc3)N2C(=O)N2CCNC(=O)C2)c(OC(C)C)c1 [Nutlin-3a, reference compound] | – | Par-4 secretion ([1]; MEF cells): stimulated Par-4 secretion at micromolar levels |

The next lines start with results.

| melting point [°C] | Structure (SMILES) | also measured |
| --- | --- | --- |
| 247 to 248 | CN(C)c1ccc2cc(-c3ccccc3F)c(=O)[nH]c2c1 [Arylquin 4, 7-(dimethylamino)-3-(2-fluorophenyl)quinolin-2(1H)-one] | – |
| 251 to 253 | CN(C)c1ccc2cc(-c3ccccc3F)c(=S)[nH]c2c1 [Arylquin 5, 7-(dimethylamino)-3-(2-fluorophenyl)quinoline-2(1H)-thione] | – |
| 142 to 144 | CN(C)c1ccc2cc(-c3ccccc3F)cnc2c1 [Arylquin 6, 3-(2-fluorophenyl)-N,N-dimethylquinolin-7-amine] | level of Par-4 secretion, structure-activity comparison among analogs [1]: highest levels of Par-4 secretion |
